According to patent US20250313563A1, “GLYCOGEN SYNTHASE KINASE 3 INHIBITORS AND USES THEREOF” (The Broad Institute, Inc., priority 2022, published 2025):
Like-named read-outs stand apart in the source and are kept apart here.

Experiments:
[1] = molecular target: GSK3α (GST-full length GSK3α) (Homo sapiens (Human), UniProt P49840); assay: GSK3α TR-FRET kinase assay; type: biochemical
Summary of the method: (§1)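 IC50 came from the normalized 665/615 nm TR-FRET ratio plotted against log compound concentration. The Tb-labelled pSer641 antibody and streptavidin-d2 detected phosphorylation of biotinylated S645-primed glycogen synthase peptide (200 nM) by 1 nM full-length GST-kinase. ATP was 4 μM for α, 2 μM for β, or 1 mM.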

[2] = molecular target: GSK3b (GST-full length GSK3b) (Homo sapiens (Human), UniProt P49841); assay: GSK3b TR-FRET kinase assay; type: biochemical
Chain of GSK3b (GST-full length GSK3b) (P49841 whole entry): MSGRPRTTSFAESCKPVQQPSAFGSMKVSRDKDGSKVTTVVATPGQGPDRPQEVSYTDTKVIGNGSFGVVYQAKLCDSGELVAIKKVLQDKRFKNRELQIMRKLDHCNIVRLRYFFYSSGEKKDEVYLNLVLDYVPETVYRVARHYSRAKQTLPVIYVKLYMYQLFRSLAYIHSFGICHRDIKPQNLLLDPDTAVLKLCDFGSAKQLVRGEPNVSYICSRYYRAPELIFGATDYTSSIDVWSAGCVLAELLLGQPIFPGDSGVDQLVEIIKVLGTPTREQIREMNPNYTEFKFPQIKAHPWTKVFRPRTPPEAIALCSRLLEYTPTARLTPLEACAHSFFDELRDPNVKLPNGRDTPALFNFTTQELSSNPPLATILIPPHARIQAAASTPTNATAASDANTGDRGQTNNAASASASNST
Summary of the method: as §1

[3] = 1 nM GSK3α, 4 μM ATP, 30 minute preincubation, Table 16, read-out: GSK3-A TR-FRET BIOCHEMICAL (TR-FRET), IC50
[4] = 1 nM GSK3b, 2 μM ATP, 30 minute preincubation, Table 16, read-out: GSK3-B TR-FRET BIOCHEMICAL (TR-FRET), IC50
[5] = read-out: GSK3-A (TR-FRET 1 mM ATP), GMean, IC50, 1 mM ATP, geometric mean
[6] = read-out: GSK3-B (TR-FRET 1 mM ATP), GMean, IC50, 1 mM ATP, geometric mean
[7] = 1 nM GSK3α, 4 μM ATP, 30 minute preincubation, Table 16, read-out: GSK3-A TR-FRET BIOCHEMICAL (TR-FRET)
[8] = 1 nM GSK3b, 2 μM ATP, 30 minute preincubation, Table 16, read-out: GSK3-B TR-FRET BIOCHEMICAL (TR-FRET)

Chain of GSK3α (GST-full length GSK3α) (P49840 whole entry): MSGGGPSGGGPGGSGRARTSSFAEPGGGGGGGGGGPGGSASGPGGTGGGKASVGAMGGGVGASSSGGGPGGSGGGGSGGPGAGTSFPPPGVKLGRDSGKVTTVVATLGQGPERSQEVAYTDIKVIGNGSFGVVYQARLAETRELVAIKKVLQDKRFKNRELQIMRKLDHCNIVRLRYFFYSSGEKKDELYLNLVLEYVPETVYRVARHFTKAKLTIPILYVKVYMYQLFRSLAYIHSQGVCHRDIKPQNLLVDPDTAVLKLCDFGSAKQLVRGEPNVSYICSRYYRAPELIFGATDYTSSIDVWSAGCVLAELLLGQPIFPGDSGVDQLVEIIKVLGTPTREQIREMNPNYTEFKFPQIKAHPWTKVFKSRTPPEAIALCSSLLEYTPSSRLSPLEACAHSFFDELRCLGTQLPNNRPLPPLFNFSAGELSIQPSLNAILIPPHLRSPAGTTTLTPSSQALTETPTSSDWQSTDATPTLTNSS

CC[C@@]1(c2cccc(-c3cc(C4CCCC4)nn3C)c2)C2=C(CC(C)(C)NC2=O)Nc2n[nH]cc21 [Compound 949509]
IC50 [1, 3]: > 5000 nM
IC50 [2, 4]: > 5000 nM

CC[C@@]1(c2cccc(-c3cnn(CCN4CCCC4)c3)c2)C2=C(CC(C)(C)NC2=O)Nc2n[nH]cc21 [Compound 949510]
IC50 [1, 3]: > 5000 nM
IC50 [2, 4]: > 5000 nM

CC[C@@]1(c2cccc(-c3cnn(Cc4ccc(C(F)(F)F)cc4)c3)c2)C2=C(CC(C)(C)NC2=O)Nc2n[nH]cc21 [Compound 949511]
IC50 [1, 3]: > 5000 nM
IC50 [2, 4]: > 5000 nM

CC[C@@]1(c2cccc(-c3cnn(Cc4cccc(C(F)(F)F)c4)c3)c2)C2=C(CC(C)(C)NC2=O)Nc2n[nH]cc21 [Compound 949513]
IC50 [1, 3]: > 5000 nM
IC50 [2, 4]: > 5000 nM

CCC1(c2cccc(C3CCC3)c2)C2=C(CC(C)(C)CC2=O)Nc2n[nH]cc21 (stereo not shown) [Compound 949514]
IC50 [1, 3]: 1000 to 5000 nM
IC50 [2, 4]: > 5000 nM

CC[C@@]1(c2cccc(-c3cnn(-c4cccnc4)c3)c2)C2=C(CC(C)(C)NC2=O)Nc2n[nH]cc21 [Compound 949515]
IC50 [1, 3]: > 5000 nM
IC50 [2, 4]: > 5000 nM

CC[C@@]1(c2cccc(-c3ccncc3C(F)(F)F)c2)C2=C(CC(C)(C)NC2=O)Nc2n[nH]cc21 [Compound 949516]
IC50 [1, 3]: 1000 to 5000 nM
IC50 [2, 4]: > 5000 nM

CC[C@@]1(c2cccc(-c3ccnn3C3CC3(F)F)c2)C2=C(CC(C)(C)NC2=O)Nc2n[nH]cc21 (stereo partly shown) [Compound 949518]
IC50 [1, 3]: 100 to 1000 nM
IC50 [2, 4]: > 5000 nM

CC[C@@]1(c2cccc(-c3cnn(-c4ccccc4)c3F)c2)C2=C(CC(C)(C)NC2=O)Nc2n[nH]cc21 [Compound 949519]
IC50 [1, 3]: > 5000 nM
IC50 [2, 4]: > 5000 nM

CC[C@]1(c2cccc(-c3ccnc(C)c3)c2)C2=C(CC3(CCC3)NC2=O)Nc2n[nH]cc21 [Compound 949520]
IC50 [1, 3]: ≤ 100 nM
IC50 [2, 4]: 100 to 1000 nM

CC[C@@]1(c2cccc(C3CCC3)c2)C2=C(CC(C)(C)CC2=O)Nc2n[nH]cc21 [Compound 949521]
IC50 [1, 3]: ≤ 100 nM
IC50 [1, 5]: 100 to 1000 nM
IC50 [2, 4]: ≤ 100 nM
IC50 [2, 6]: 1000 to 5000 nM

CC[C@@]1(c2cccc(C(F)(F)F)c2)C2=C(CCN(CCOC)C2=O)Nc2n[nH]cc21 [Compound 949599]
IC50 [1, 3]: 100 to 1000 nM
IC50 [2, 4]: 100 to 1000 nM

CC[C@]1(c2cccc(C(F)(F)F)c2)C2=C(CCN(CCOC)C2=O)Nc2n[nH]cc21 [Compound 949600]
IC50 [1, 3]: > 5000 nM
IC50 [2, 4]: > 5000 nM

CCC1(c2cccc(C(F)(F)F)c2)C2=C(CCC2=O)Nc2n[nH]cc21 (stereo not shown) [Compound 949639]
IC50 [1, 3]: 100 to 1000 nM
IC50 [2, 4]: 100 to 1000 nM

CC1CCC12C1=C(CC(C)(C)CC1=O)Nc1n[nH]cc12 (stereo not shown) [Compound 949640]
IC50 [1, 7]: 100 to 1000 nM
IC50 [2, 8]: 1000 to 5000 nM

CCC1(c2cccc(C(F)(F)F)c2)C2=C(CCN(c3cn(C)nc3C)C2=O)Nc2n[nH]cc21 (stereo not shown) [Compound 949641]
IC50 [1, 3]: > 5000 nM
IC50 [2, 4]: > 5000 nM

CC[C@]1(c2cccc(-c3ccncc3F)c2)C2=C(CC(C)(C)NC2=O)Nc2n[nH]c(F)c21 [Compound 949643]
IC50 [1, 3]: > 5000 nM
IC50 [2, 4]: > 5000 nM

CC[C@]1(c2cccc(-c3cc(C)ncc3F)c2)C2=C(CC(C)(C)NC2=O)Nc2n[nH]c(C(F)(F)F)c21 [Compound 949644]
IC50 [1, 3]: 100 to 1000 nM
IC50 [2, 4]: 1000 to 5000 nM

CC[C@@]1(c2cccc(C(C)C)c2)C2=C(CC(C)(C)NC2=O)Nc2n[nH]c(C)c21 [Compound 949646]
IC50 [1, 3]: > 5000 nM
IC50 [2, 4]: > 5000 nM

CC[C@@]1(c2cccc(N(C)c3ncccn3)c2)C2=C(CC(C)(C)NC2=O)Nc2n[nH]c(F)c21 [Compound 949648]
IC50 [1, 3]: ≤ 100 nM
IC50 [1, 5]: ≤ 100 nM
IC50 [2, 4]: ≤ 100 nM
IC50 [2, 6]: 1000 to 5000 nM

CC[C@]1(c2cccc(C(C)C)c2)C2=C(CC(C)(C)NC2=O)Nc2n[nH]c(C)c21 [Compound 949649]
IC50 [1, 3]: ≤ 100 nM
IC50 [1, 5]: 100 to 1000 nM
IC50 [2, 4]: ≤ 100 nM
IC50 [2, 6]: 1000 to 5000 nM

CC[C@@]1(c2cccc(-c3cc(C)ncc3F)c2)C2=C(CC(C)(C)NC2=O)Nc2n[nH]c(C(F)(F)F)c21 [Compound 949650]
IC50 [1, 3]: ≤ 100 nM
IC50 [1, 5]: 100 to 1000 nM
IC50 [2, 4]: ≤ 100 nM
IC50 [2, 6]: 1000 to 5000 nM

CCC1(c2cccc(-c3ccncc3F)c2)C2=C(CC(C)(C)NC2=O)Nc2n[nH]c(F)c21 (stereo not shown) [Compound 949651]
IC50 [1, 3]: ≤ 100 nM
IC50 [1, 5]: 100 to 1000 nM
IC50 [2, 4]: ≤ 100 nM
IC50 [2, 6]: > 5000 nM

CC[C@@]1(c2cccc(C(F)(F)F)c2)C2=C(Nc3n[nH]cc31)c1ccccc1C2=O [Compound 949742]
IC50 [1, 3]: 100 to 1000 nM
IC50 [2, 4]: 100 to 1000 nM

CC[C@]1(c2cccc(C(F)(F)F)c2)C2=C(Nc3n[nH]cc31)c1ccccc1C2=O [Compound 949743]
IC50 [1, 3]: ≤ 100 nM
IC50 ([1]; GSK3-A (TR-FRET 1 mM ATP), GMean, IC50, 1 mM ATP, geometric mean): ≤ 100 nM
IC50 [2, 4]: ≤ 100 nM
IC50 ([2]; GSK3-B (TR-FRET 1 mM ATP), GMean, IC50, 1 mM ATP, geometric mean): 100 to 1000 nM

CCC1(c2cccc(C(C)C)c2)C2=C(CC(C)(C)NC2=O)Nc2n[nH]c(C(F)(F)F)c21 (stereo not shown) [Compound 949747]
IC50 [1, 3]: ≤ 100 nM
IC50 [2, 4]: ≤ 100 nM

CCC1(c2cccc(OC)c2)C2=C(CC(C)(C)NC2=O)Nc2n[nH]c(C(F)(F)F)c21 (stereo not shown) [Compound 949748]
IC50 [1, 3]: ≤ 100 nM
IC50 [2, 4]: 100 to 1000 nM

CC[C@]1(c2cccc(C(C)C)c2)C2=C(CC(C)(C)NC2=O)Nc2n[nH]cc21 [Compound 949752]
IC50 [1, 3]: > 5000 nM
IC50 [2, 4]: > 5000 nM

CC[C@]1(c2ccccc2)C2=C(C[C@@]3(CCN(C)C3=O)CC2=O)Nc2n[nH]cc21 [Compound 949753]
IC50 [1, 7]: 1000 to 5000 nM
IC50 [2, 8]: > 5000 nM

CC[C@]1(c2ccccc2)C2=C(C[C@]3(CCN(C)C3=O)CC2=O)Nc2n[nH]cc21 [Compound 949754]
IC50 [1, 7]: > 5000 nM
IC50 [2, 8]: > 5000 nM

CC[C@]1(c2cccc(-c3ccncc3F)c2)C2=C(CC(C)(C)NC2=O)Nc2n[nH]c(Cl)c21 [Compound 949756]
IC50 [1, 3]: > 5000 nM
IC50 [2, 4]: > 5000 nM

CC[C@@]1(c2cccc(-c3ccncc3F)c2)C2=C(CC(C)(C)NC2=O)Nc2n[nH]c(Cl)c21 [Compound 949757]
IC50 [1, 3]: ≤ 100 nM
IC50 [1, 5]: 100 to 1000 nM
IC50 [2, 4]: ≤ 100 nM
IC50 [2, 6]: 1000 to 5000 nM

CC[C@@]1(c2ccccc2)C2=C(C[C@]3(CCN(C)C3=O)CC2=O)Nc2n[nH]cc21 [Compound 949759]
IC50 [1, 7]: > 5000 nM
IC50 [2, 8]: > 5000 nM

CC[C@@]1(c2ccccc2)C2=C(C[C@@]3(CCN(C)C3=O)CC2=O)Nc2n[nH]cc21 [Compound 949760]
IC50 [1, 7]: 100 to 1000 nM
IC50 [2, 8]: > 5000 nM

CCC1(c2cccc(C(C)C)c2)C2=C(CC(C)(C)NC2=O)Nc2n[nH]cc21 (stereo not shown) [Compound 949761]
IC50 [1, 3]: ≤ 100 nM
IC50 [1, 5]: 100 to 1000 nM
IC50 [2, 4]: 100 to 1000 nM
IC50 [2, 6]: > 5000 nM

CCC1(c2cccc(Br)c2)C2=C(CC(C)(C)C2=O)Nc2n[nH]cc21 (stereo not shown) [Compound 949805]
IC50 [1, 3]: 100 to 1000 nM
IC50 [2, 4]: 1000 to 5000 nM

CCC1(c2cccc(C(F)(F)F)c2)C2=C(CCN(c3ccn(C)n3)C2=O)Nc2n[nH]cc21 (stereo not shown) [Compound 949835]
IC50 [1, 3]: ≤ 100 nM
IC50 [2, 4]: 100 to 1000 nM

CC[C@]1(c2cccc(C(F)(F)F)c2)C2=C(CCN(c3ccn(C)n3)C2=O)Nc2n[nH]cc21 [Compound 949836]
IC50 [1, 3]: 1000 to 5000 nM
IC50 [2, 4]: > 5000 nM

CCC1(c2cccc(-c3ccnc(C)c3)c2)C2=C(CC(C)(C)C2=O)Nc2n[nH]cc21 (stereo not shown) [Compound 949840]
IC50 [1, 3]: 100 to 1000 nM
IC50 [2, 4]: 1000 to 5000 nM

CCn1cc(N2CCC3=C(C2=O)[C@](CC)(c2cccc(C(F)(F)F)c2)c2c[nH]nc2N3)cn1 [Compound 949867]
IC50 [1, 3]: ≤ 100 nM
IC50 [2, 4]: 100 to 1000 nM

CCn1cc(N2CCC3=C(C2=O)[C@](CC)(c2cccc(C(F)(F)F)c2)c2c[nH]nc2N3)cn1 [Compound 949868]
IC50 [1, 3]: 100 to 1000 nM
IC50 [2, 4]: > 5000 nM

CCC1(c2cccc(-c3cc(C)nnc3C)c2)C2=C(CC(C)(C)NC2=O)Nc2n[nH]c(C(F)(F)F)c21 (stereo not shown) [Compound 949910]
IC50 [1, 3]: ≤ 100 nM
IC50 [2, 4]: ≤ 100 nM
